Read-outs that look alike come from different tables or passages of the source.
What was measured:
Format in all cases: cell-based
[1] = test system: MM.1S cells; experiment: Effect of the compound on MM.1S cell proliferation (MTS, 7 days); conditions: Homo sapiens, MM1.S
Method: MM.1S cells were cultured in 1640 medium supplemented with 10% fetal bovine serum, then collected and diluted to the desired cell concentration after 7 days of treatment. A total of 180 μL of cell suspension was added to each well in a 96-well cell plate, ensuring 20,000 cells per well. For the control group, 20 μL of 0.2% DMSO was added to each well. Compounds were diluted in a 5-step gradient from a 10 mM stock solution, and 20 μL of each dilution was added to the compound-containing wells (with a final DMSO concentration of 0.2%). The cells were incubated in a 37° C., 5% CO2 incubator for 7 days. Afterward, 20 μL of the MTS reagent (Promega, G5430) was added to each well, followed by incubation for 3-4 hours in a 37° C., 5% CO2 incubator. Absorbance at 490 nm was measured using a microplate reader, with 690 nm absorbance as the background. The final raw data was calculated as OD490-OD690. The compound inhibition rate was calculated using the formula: […]
The IC50 for the compound's proliferative inhibition was fitted using GraphPad Prism 5.0. The experiment was repeated three times, and the average and standard deviation were calculated using three parallel experiments per trial.

[2] = test system: Mino cells; experiment: Inhibition of cell proliferation of Mino cells (MTS, 3 days); conditions: Homo sapiens, MINO
Method: Mino cells were cultured with RPMI-1640 medium supplemented with 15% fetal bovine serum, and collected. The cell concentration was diluted according to a 3-day treatment period, and 90 μL of the cell suspension was added to each well of a 96-well plate, resulting in 8000 cells per well. For control wells, 10 μL of DMSO at a final concentration of 0.2% was added. The compounds were diluted in a 5-fold gradient from a 10 mM stock solution, and 10 μL of each compound solution was added to the experimental wells (with a final DMSO concentration of 0.2%). The cells were incubated in a 37° C., 5% CO2 incubator for 3 days. After preparing the reaction mixture using the MTS reagent kit (Promega, G5430), 20 μL was added to each well, and the cells were incubated for 3-4 hours at 37° C., 5% CO2.
The absorbance at 490 nm was read using a microplate reader, with the absorbance at 690 nm used as the background. The final raw data was calculated as OD490-OD690. The inhibition rate of the compounds was calculated using the formula: Inhibition rate=(OD DMSO−OD compound)/(OD DMSO−OD blank)×100%. The IC50 values for cell proliferation inhibition of the compounds were fitted using GraphPad Prism 5.0. The experiment was repeated three times, with the average and standard deviation calculated from three parallel experiments each time.

[3] = test system: MV-4-11 cells; experiment: Inhibition of MV-4-11 cell proliferation (MTS, 7 days); conditions: Homo sapiens
Method: MV-4-11 cells were cultured in IMDM with 10% fetal bovine serum, collected, and diluted to the appropriate cell concentration for a 7-day treatment period. A 96-well plate was used, and 180 μL of cell suspension was added to each well, resulting in a cell count of 2,000 per well. For the control wells, 20 μL of DMSO at a final concentration of 0.2% was added. The compounds were diluted from a 10 mM stock solution in a five-fold gradient, and 20 μL was added to the compound wells (with a final DMSO concentration of 0.2%). The cells were incubated in a 37° C., 5% CO2 incubator for 7 days. After preparing the reaction solution using the MTS reagent kit (Promega, G5430), 20 μL was added to each well, and the cells were incubated in the incubator for 3-4 hours. The absorbance at 490 nm was measured using a microplate reader, with the absorbance at 690 nm as the background value. The final data was calculated as OD490-OD690. The inhibition rate of the compounds was calculated using the formula: […]
The IC50 values for proliferation inhibition were calculated using GraphPad Prism 5.0. The experiments were repeated three times, with three parallel experiments for each, and the mean and standard deviation were calculated.
The cell activity test results are shown in Table 3: A indicates IC50<1 μM, B indicates 1 µM≤IC50≤20 μM, and C indicates IC50>20 μM.

[4] = 168 h, 7 days, MTS, Table 1, read-out: MM.1S Cells Inhibition Activity IC50
[5] = 72 h, 3 days, MTS, Table 2, read-out: Mino Cells Inhibition Activity IC50
[6] = MV4-11, 168 h, 7 days, MTS, Table 3, read-out: MV-4-11 Cells Inhibition Activity IC50

Row | Structure (SMILES) | IC50 [1, 4] | IC50 [3, 6] | IC50 ([1]; Table 4, read-out: Inhibitory Activity of Compounds on Cell Proliferation MM.1S IC50) | IC50 ([3]; MV4-11, Table 4, values in μM, read-out: Inhibitory Activity of Compounds on Cell Proliferation MV-4-11 IC50) | IC50 [2, 5] | IC50 ([2]; Table 4, read-out: Inhibitory Activity of Compounds on Cell Proliferation Mino IC50)
1 | O=C1CCC(N2C(=O)c3cccc(NCc4cnc(-c5cccc(F)c5)s4)c3C2=O)C(=O)N1 (stereo not drawn) [Example 28] | 30 to 150 nM | 1 to 20 µM |  |  | > 120 nM | 
2 | N#Cc1cccc(-c2ncc(CNc3cccc4c3C(=O)N(C3CCC(=O)NC3=O)C4=O)s2)c1 (stereo not drawn) [Example 30] | 15 to 30 nM | 1 to 20 µM |  |  | > 120 nM | 
3 | O=C1CCC(N2C(=O)c3cccc(NCc4cnc(-c5ccc(OC(F)(F)F)cc5)s4)c3C2=O)C(=O)N1 (stereo not drawn) [Example 35] | < 15 nM | < 1 µM |  |  | < 60 nM | 
4 | COc1ccc(-c2ncc(CNc3cccc4c3C(=O)N(C3CCC(=O)NC3=O)C4=O)s2)c(OC)c1 (stereo not drawn) [Example 36] | 15 to 30 nM | < 1 µM |  |  | > 120 nM | 
5 | CC(C)(C)C(=O)OCN1C(=O)CCC(N2C(=O)c3cccc(NCc4cnc(-c5ccc(C(F)(F)F)cc5)s4)c3C2=O)C1=O (stereo not drawn) [Example 39] | 15 to 30 nM | < 1 µM |  |  | 60 to 120 nM | 
6 | CC(C)(C)C(=O)OCN1C(=O)CCC(N2C(=O)c3cccc(NCc4cnc(-c5ccc(Cl)cc5)o4)c3C2=O)C1=O (stereo not drawn) [Example 40, (3-(4-(((2-(4-Chlorophenyl)-5-oxazolyl)methyl)amino)-1,3-dioxoisoindol-2-yl)-2,6-dioxopiperidin-1-yl)methyl Neopentyl Ester] | 30 to 150 nM | < 1 µM |  |  | > 120 nM | 
7 | CC(C)(C)C(=O)OCN1C(=O)CCC(N2C(=O)c3cccc(NCc4cnc(C5CCN(C(=O)C(C)(C)C)CC5)o4)c3C2=O)C1=O (stereo not drawn) [Example 41] | 15 to 30 nM | 1 to 20 µM |  |  | > 120 nM | 

The next lines start with results.

Row | IC50 [1, 4] | IC50 [3, 6] | IC50 ([1]; Table 4, read-out: Inhibitory Activity of Compounds on Cell Proliferation MM.1S IC50) | IC50 ([3]; MV4-11, Table 4, values in μM, read-out: Inhibitory Activity of Compounds on Cell Proliferation MV-4-11 IC50) | Structure (SMILES) | IC50 [2, 5] | IC50 ([2]; Table 4, read-out: Inhibitory Activity of Compounds on Cell Proliferation Mino IC50)
8 | 15 to 30 nM | < 1 µM |  |  | Cc1ccc(-c2cnc(CNc3cccc4c3C(=O)N(C3CCC(=O)NC3=O)C4=O)o2)cc1 (stereo not drawn) [Example 24] | > 120 nM | 
9 | < 15 nM | < 1 µM | < 15 nM | < 1 µM | O=C1CCC(N2C(=O)c3cccc(NCc4cnc(-c5ccc(Cl)cc5)o4)c3C2=O)C(=O)N1 (stereo not drawn) [Example 25] | < 60 nM | < 60 nM
10 | < 15 nM | < 1 µM |  |  | O=C1CCC(N2C(=O)c3cccc(NCc4cnc(-c5ccc(F)cc5)o4)c3C2=O)C(=O)N1 (stereo not drawn) [Example 26] | < 60 nM | 
11 | < 15 nM | < 1 µM |  |  | O=C1CCC(N2C(=O)c3cccc(NCc4cnc(-c5ccccc5Cl)o4)c3C2=O)C(=O)N1 (stereo not drawn) [Example 27] | 60 to 120 nM | 
12 | < 15 nM | < 1 µM |  |  | Cc1ccc(-c2ncc(CNc3cccc4c3C(=O)N(C3CCC(=O)NC3=O)C4=O)s2)cc1 (stereo not drawn) [Example 29] | > 120 nM | 
13 | < 15 nM | < 1 µM |  |  | C=Cc1ccc(-c2ncc(CNc3cccc4c3C(=O)N(C3CCC(=O)NC3=O)C4=O)s2)cc1 (stereo not drawn) [Example 31] | < 60 nM | 
14 | < 15 nM | < 1 µM |  |  | O=C1CCC(N2C(=O)c3cccc(NCc4cnc(-c5ccc(Cl)cc5)s4)c3C2=O)C(=O)N1 (stereo not drawn) [Example 32] | 60 to 120 nM | 
15 | < 15 nM | < 1 µM |  |  | N#Cc1ccc(-c2ncc(CNc3cccc4c3C(=O)N(C3CCC(=O)NC3=O)C4=O)s2)cc1 (stereo not drawn) [Example 33, 4-(5-(((2-(2,6-dioxopiperidin-3-yl)-1,3-dioxoisoindolin-4-yl)amino)methyl)thiazol-2-yl)benzonitrile] | 60 to 120 nM | 
16 | 30 to 150 nM | < 1 µM |  |  | O=C1CCC(N2C(=O)c3cccc(NCc4ncc(-c5ccc(F)cc5)s4)c3C2=O)C(=O)N1 (stereo not drawn) [Example 34] | > 120 nM | 
